The results in this text go back to ChEMBL document CHEMBL5131504, “Anthraquinone derivatives as ADP-competitive inhibitors of liver pyruvate kinase” (Eur J Med Chem, 2022).

In assay [1] the target is T1, Pyruvate kinase PKLR (Homo sapiens, UniProt P30613). Briefly: Inhibition of PKL in human PKM2 knockout HepG2 cells at 10 uM incubated for 5 mins by Microplate reader based analysis relative to control. Type of assay: cell-based.
Target sequence in this assay (P30613 whole entry, looked up): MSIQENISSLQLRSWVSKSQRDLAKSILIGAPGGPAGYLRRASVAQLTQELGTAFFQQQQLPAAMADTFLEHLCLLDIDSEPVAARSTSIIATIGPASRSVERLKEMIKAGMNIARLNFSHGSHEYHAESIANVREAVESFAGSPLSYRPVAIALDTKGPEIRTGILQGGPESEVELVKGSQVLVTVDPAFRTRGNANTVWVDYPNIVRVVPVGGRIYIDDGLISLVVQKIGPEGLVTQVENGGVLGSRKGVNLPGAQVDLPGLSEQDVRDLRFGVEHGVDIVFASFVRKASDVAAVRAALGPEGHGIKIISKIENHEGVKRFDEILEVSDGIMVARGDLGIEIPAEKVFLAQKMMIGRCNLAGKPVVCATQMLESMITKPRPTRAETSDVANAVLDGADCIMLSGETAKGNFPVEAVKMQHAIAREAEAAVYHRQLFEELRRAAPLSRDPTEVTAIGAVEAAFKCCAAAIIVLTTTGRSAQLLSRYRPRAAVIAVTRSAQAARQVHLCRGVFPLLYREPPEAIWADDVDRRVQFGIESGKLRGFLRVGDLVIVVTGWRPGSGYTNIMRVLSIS
The target of assay [2] is T1, Pyruvate kinase PKLR. Briefly: Inhibition of PKL (unknown origin) at 10 uM for 30 mins by Kinase-Glo Max reagent based luminescence assay.
Target sequence in this assay (P30613 whole entry, looked up): as above
Assay [3] deals with T1, Pyruvate kinase PKLR. Description: Inhibition of PKL (unknown origin) for 30 mins by Kinase-Glo Max reagent based luminescence assay.
Target sequence in this assay (P30613 whole entry): as the sequence (P30613 whole entry, looked up) above

As to `O=C1c2ccccc2C(=O)c2cc(S(=O)(=O)N3CCN(C(=O)CC(O)(C(=O)O)C(=O)O)CC3)c(O)cc21`, the figures for the inhibition at Pyruvate kinase PKLR [1] and against Pyruvate kinase PKLR [2] were 22.6% and 63%, respectively. On to `O=C(O)CNC(=O)CNC(=O)CNS(=O)(=O)c1cc2c(c(O)c1O)C(=O)c1ccccc1C2=O`, for which, at Pyruvate kinase PKLR [2], the inhibition was found to be 92%. 700 nM corresponded to half-maximal inhibition on Pyruvate kinase PKLR [3] (IC50).

Regarding `O=C(O)CCCNS(=O)(=O)c1cc2c(c(O)c1O)C(=O)c1ccccc1C2=O`, the inhibition against Pyruvate kinase PKLR [2] is 101%. The compound further yielded an IC50 at Pyruvate kinase PKLR [3] of 7500 nM. For `O=C(O)CNC(=O)CNS(=O)(=O)c1cc2c(c(O)c1O)C(=O)c1ccccc1C2=O`, in that order: 102% and 4100 nM.

On to `COc1c(S(=O)(=O)O)cc2c(c1OC)C(=O)c1ccccc1C2=O`, for which, on Pyruvate kinase PKLR [2], the inhibition came out at 19%. In the case of `O=C(O)Cc1ccc(CNc2cc3c(cc2O)C(=O)c2ccccc2C3=O)cc1C(=O)O`, the inhibition stood at 50.2% at Pyruvate kinase PKLR [1] and 94% on Pyruvate kinase PKLR [2].

Turning to `O=C(O)CNS(=O)(=O)c1cc2c(c(O)c1O)C(=O)c1ccccc1C2=O`, the inhibition against Pyruvate kinase PKLR [2] is 100%. The compound further came in with a concentration for half-maximal inhibition (IC50) against Pyruvate kinase PKLR [3] of 200 nM. As to `O=C(O)Cc1ccc(CNS(=O)(=O)c2cc3c(c(O)c2O)C(=O)c2ccccc2C3=O)cc1C(=O)O`, the inhibition against Pyruvate kinase PKLR [2] was 99%. The compound further displayed an IC50 on Pyruvate kinase PKLR [3] of 300 nM.

On to `O=C(O)CNS(=O)(=O)c1cc2c(cc1O)C(=O)c1ccccc1C2=O`, for which the inhibition at Pyruvate kinase PKLR [1] turned out to be 78.7%; on Pyruvate kinase PKLR [2] it was 86%. Regarding `O=C(O)CC[C@H](NC(=O)C1CCCN(S(=O)(=O)c2cc3c(c(O)c2O)C(=O)c2ccccc2C3=O)C1)C(=O)O` (stereo not given in full), the inhibition against Pyruvate kinase PKLR [2] worked out at 94%. The compound also had an IC50 on Pyruvate kinase PKLR [3] of 1300 nM.

As to `Nc1c(S(=O)(=O)O)cc2c(c1O)C(=O)c1ccccc1C2=O`, the inhibition against Pyruvate kinase PKLR [2] is 77%.

As for `O=C1c2ccccc2C(=O)c2c(O)cc(S(=O)(=O)O)cc21`, the inhibition at Pyruvate kinase PKLR [2] worked out at 65%. Besides, the IC50 at Pyruvate kinase PKLR [3] came to 7300 nM. Consider `O=C(O)C[C@H](NC(=O)C1CCCN(S(=O)(=O)c2cc3c(c(O)c2O)C(=O)c2ccccc2C3=O)C1)C(=O)O` (stereo not given in full), for which the inhibition at Pyruvate kinase PKLR [2] was 72%. The compound further yielded a half-maximal inhibitory concentration (IC50) at Pyruvate kinase PKLR [3] of 1900 nM. In the case of `O=C(O)Cc1ccc(CNc2cc3c(cc2O)C(=O)c2ccccc2C3=O)cc1`, the values for the inhibition at Pyruvate kinase PKLR [1] and against Pyruvate kinase PKLR [2] were 41.1% and 76%, respectively. On to `O=C1c2ccccc2C(=O)c2c1cc(S(=O)(=O)N1CCC(C(=O)O)CC1)c(O)c2O`, for which the inhibition at Pyruvate kinase PKLR [2] is 87%. The same compound showed an IC50 against Pyruvate kinase PKLR [3] of 4800 nM. As to `O=C(O)CC[C@H](NC(=O)N1CCN(S(=O)(=O)c2cc3c(c(O)c2O)C(=O)c2ccccc2C3=O)CC1)C(=O)O`, the inhibition at Pyruvate kinase PKLR [2] amounted to 99%. In addition, the IC50 against Pyruvate kinase PKLR [3] was found to be 550 nM. Regarding `O=C(O)Cc1ccc(CNc2cc3c(c(O)c2O)C(=O)c2ccccc2C3=O)cc1C(=O)O`, the inhibition on Pyruvate kinase PKLR [1] is 79.3%; on Pyruvate kinase PKLR [2], 79%. Half-maximal inhibition at Pyruvate kinase PKLR [3] (IC50) required 1300 nM.

As for `O=C(O)Cc1ccc(CNC(=O)Nc2cc3c(c(O)c2O)C(=O)c2ccccc2C3=O)cc1C(=O)O`, the results for the inhibition against Pyruvate kinase PKLR [1] and against Pyruvate kinase PKLR [2] were 34% and 61%, respectively. Moreover, the IC50 against Pyruvate kinase PKLR [3] came to 1700 nM. `O=C(O)CC[C@H](NC(=O)C1CCN(S(=O)(=O)c2cc3c(c(O)c2O)C(=O)c2ccccc2C3=O)CC1)C(=O)O`: the inhibition against Pyruvate kinase PKLR [2] was 45%. Same read-out and setting: next, `O=C1c2ccccc2C(=O)c2c1cc(C(=O)N1CCNCC1)c(O)c2O`: 22%. As for `O=C(O)Cc1ccc(CNC(=O)N2CCN(S(=O)(=O)c3cc4c(c(O)c3O)C(=O)c3ccccc3C4=O)CC2)cc1C(=O)O`, the inhibition against Pyruvate kinase PKLR [2] is 99%. The compound further displayed an IC50 on Pyruvate kinase PKLR [3] of 290 nM.

In the case of `O=C1c2ccccc2C(=O)c2c1cc(S(=O)(=O)N1CCCC(C(=O)O)C1)c(O)c2O` (stereo not given), the inhibition on Pyruvate kinase PKLR [2] turned out to be 92%. The same compound had an IC50 against Pyruvate kinase PKLR [3] of 160 nM. Consider `O=C1c2ccccc2C(=O)c2cc(S(=O)(=O)N3CCCC(C(=O)O)C3)c(O)cc21` (stereo not given), for which the inhibition against Pyruvate kinase PKLR [1] amounted to 40.6%; against Pyruvate kinase PKLR [2], 58%. For `O=C(O)CC(O)(CC(=O)N1CCN(S(=O)(=O)c2cc3c(c(O)c2O)C(=O)c2ccccc2C3=O)CC1)C(=O)O` (stereo not given), the inhibition against Pyruvate kinase PKLR [2] was 100%. Besides, on Pyruvate kinase PKLR [3], the 50% inhibitory concentration (IC50) amounted to 200 nM. In the same order, the values of `O=C(O)c1cc2c(c(O)c1O)C(=O)c1ccccc1C2=O` are 94% and 1400 nM.

Take `O=C(O)CC(Nc1cc2c(c(O)c1O)C(=O)c1ccccc1C2=O)C(=O)O` (stereo not given): the values for the inhibition at Pyruvate kinase PKLR [1] and against Pyruvate kinase PKLR [2] were 83.5% and 90%, respectively. Moreover, on Pyruvate kinase PKLR [3], the IC50 came out at 2500 nM. On to `O=C(O)CC(O)(CC(=O)N1CCN(C(=O)c2cc3c(c(O)c2O)C(=O)c2ccccc2C3=O)CC1)C(=O)O` (stereo not given), for which, at Pyruvate kinase PKLR [2], the inhibition is -1%. In the case of `O=C(O)Cc1ccc(CNc2cc3c(c(O)c2O)C(=O)c2ccccc2C3=O)cc1`, the inhibition came out at 82.5% against Pyruvate kinase PKLR [1] and 96% at Pyruvate kinase PKLR [2]. At Pyruvate kinase PKLR [3], 3800 nM corresponded to half-maximal inhibition (IC50).

For the compound `O=C1c2ccccc2C(=O)c2c1cc(-c1ccc(O)cc1)c(O)c2O`, at Pyruvate kinase PKLR [2], the inhibition amounted to 39%. Regarding `O=C(O)CCNS(=O)(=O)c1cc2c(c(O)c1O)C(=O)c1ccccc1C2=O`, the inhibition against Pyruvate kinase PKLR [2] is 102%. The compound further came in with an IC50 against Pyruvate kinase PKLR [3] of 5800 nM. As to `O=C(O)C[C@H](NC(=O)C1CCN(S(=O)(=O)c2cc3c(c(O)c2O)C(=O)c2ccccc2C3=O)CC1)C(=O)O`, at Pyruvate kinase PKLR [2], the inhibition came out at 35%. Same read-out and setting: for `NS(=O)(=O)c1cccc(-c2cc3c(c(O)c2O)C(=O)c2ccccc2C3=O)c1` the value was 66%. As to `O=C1c2ccccc2C(=O)c2cc(S(=O)(=O)O)ccc21`, the inhibition on Pyruvate kinase PKLR [2] is 45%. For the compound `O=C1c2ccccc2C(=O)c2c1cc(S(=O)(=O)O)c(O)c2O` [Alizarin Red S], the inhibition was 54% against Pyruvate kinase PKLR [1] and 100% on Pyruvate kinase PKLR [2]. This compound also showed an IC50 against Pyruvate kinase PKLR [3] of 200 nM. Consider `COC[C@H](NS(=O)(=O)c1cc2c(c(O)c1O)C(=O)c1ccccc1C2=O)C(=O)O`, for which the inhibition on Pyruvate kinase PKLR [2] is 101%. Further, at Pyruvate kinase PKLR [3], inhibition was half-maximal at 1200 nM (IC50).

Turning to `O=C1c2ccccc2C(=O)c2c1cc(S(=O)(=O)N1CCNCC1)c(O)c2O`, the inhibition against Pyruvate kinase PKLR [2] was 98%. Also, the IC50 against Pyruvate kinase PKLR [3] is 150 nM.

In the case of `O=C(O)CNc1cc2c(cc1O)C(=O)c1ccccc1C2=O`, the inhibition against Pyruvate kinase PKLR [1] worked out at 82.7%; at Pyruvate kinase PKLR [2], 82%. For the compound `O=C1c2ccccc2C(=O)c2c1ccc(O)c2O`, at Pyruvate kinase PKLR [2], the inhibition turned out to be 51%. In the case of `CSCCC(NS(=O)(=O)c1cc2c(c(O)c1O)C(=O)c1ccccc1C2=O)C(=O)O` (stereo not given), the inhibition on Pyruvate kinase PKLR [2] amounted to 78%. On Pyruvate kinase PKLR [3], this compound gave an IC50 of 1400 nM. Regarding `O=C1c2ccccc2C(=O)c2c1cc(S(=O)(=O)N1CCCC(C(=O)N[C@@H](Cc3c[nH]cn3)C(=O)O)C1)c(O)c2O` (stereo not given in full), the inhibition against Pyruvate kinase PKLR [2] was found to be 27%. With `O=C(O)CC(Nc1cc2c(cc1O)C(=O)c1ccccc1C2=O)C(=O)O` (stereo not given), the inhibition amounted to 59.7% on Pyruvate kinase PKLR [1] and 57% at Pyruvate kinase PKLR [2]. For the compound `O=C1c2ccccc2C(=O)c2cc(S(=O)(=O)O)c(O)cc21`, the inhibition on Pyruvate kinase PKLR [2] is 95%. At Pyruvate kinase PKLR [3], this compound registered an IC50 of 3400 nM. In the case of `O=C1c2ccccc2C(=O)c2c1cc(-c1ccc(O)c(O)c1)c(O)c2O`, the inhibition at Pyruvate kinase PKLR [2] came out at 16%.

As for `O=C1c2ccccc2C(=O)c2c1cc(S(=O)(=O)N[C@@H](CO)C(=O)O)c(O)c2O`, at Pyruvate kinase PKLR [2], the inhibition was 97%. In addition, at Pyruvate kinase PKLR [3], the IC50 was 900 nM. Take `O=C(O)CC(O)(CC(=O)N1CCN(S(=O)(=O)c2cc(O)c3c(c2)C(=O)c2ccccc2C3=O)CC1)C(=O)O` (stereo not given): on Pyruvate kinase PKLR [2], the inhibition turned out to be 3%. For `CS(=O)(=O)c1cccc(-c2cc3c(c(O)c2O)C(=O)c2ccccc2C3=O)c1`, at Pyruvate kinase PKLR [2], the inhibition was 31%.

`O=C(O)CCCCNS(=O)(=O)c1cc2c(c(O)c1O)C(=O)c1ccccc1C2=O`: the inhibition against Pyruvate kinase PKLR [2] stood at 97%. This compound also had an IC50 on Pyruvate kinase PKLR [3] of 19000 nM.
